According to US20190209451A1, “SOLUBILIZING AGENTS FOR UV FILTERS IN COSMETIC FORMULATIONS” (BASF SE, priority 2016, published 2019):

assay: Determination of the solubility of organic UV filters in levulynates used as solvents; format: physicochemical; details: UV filter dissolved in the named levulynate as solvent; stirred seven days at 25° C.; UV/Vis-spectrometry
Procedure: Afterwards 0.02 g (1%) of the respective substance are weighed and added to the solvent. The vial is placed into a thermostated waterbath, where the suspension/solution is stirred during seven days at 25° C. If the amount of substance put into the solvent is fully soluble, additional substance is added until precipitation can be observed. After seven days, the sample is centrifuged for 30 minutes at 13000 rpm. The supernatant is transferred into a small beaker. In case the sample is still turbid, it is filtered through a 0.2 μm non-steril Membrex 25 PET filter. Clear solutions must not be filtered. When a clear solution is obtained, the concentration of the substance is determined with UV/Vis-spectrometry. For this purpose the sample may be diluted with a suitable solvent or, in case of lower concentrations, may be measured as is. If the test solvent is water, further dilution is done with water. If the test solvent is volatile, the same solvent is taken for dilution. If the test solvent is a cosmetic emollient, dioxane is used for further dilution. In order to evaluate the concentration from the UV-spectroscopic results, the extinction coefficient is needed, which is determined independently with a solvent of similar polarity like that one used for dilution of the saturated solutions. The solubility can be calculated using the equation of the Lambert-Beer-Law: [formula] • c=concentration (mol/l) • E=extinction measured at λ max. • f=dilution factor • ε=extinction coefficient at λmax [I/(mol/cm)] • d=optical pathlength [cm] Due to spectra overlapping the solubility of some crystalline UV filters in liquid UV filters cannot be determined exactly by UV spectroscopy. In this case solubilities are determined via HPLC with reversed phase C-18 columns and UV-detectors.

Row | Solubility of Bis-Ethylhexyloxyphenol Methoxyphenyl Triazine [w/%] | Solubility of Diethylamino Hydroxybenzoyl Hexyl Benzoate [w/%] | Solubility of Ethylhexyl Triazone [w/%] | SMILES
1 | 9.1 | 31.0 | 21.0 | CCCCCCCCCCOC(=O)CCC(C)=O [C10-levulynate, levulinic acid decyl ester]
2 | 10.4 | 42.6 | 25.1 | CCCCCCCCOC(=O)CCC(C)=O [C8-levulynate, levulinic acid octyl ester]
3 | 6.5 | 33.4 |  | CCCCC(CC)COC(=O)CCC(C)=O (centres unmarked) [2-Ethylhexyl-levulynate]
4 | 3.0 | 29.1 | 11.7 | CCCCCCCCCCCCOC(=O)CCC(C)=O [C12-Levulynate, levulinic acid dodecyl ester]
